Measured values published in patent publication US11752088B2, “Highly concentrated seawater mineral extract and uses thereof” (Oriel Seasalt Company Limited, priority 2015, dated 2023).

Assay: Flow Mediated Dilation (FMD) test
Settings: in vivo

Structure (SMILES): O=[N+]([O-])OCC(CO[N+](=O)[O-])O[N+](=O)[O-] [Nitroglycerin]
- FMD reading: 10 % FMD
- blood vessel diameter: 5.3 mm
